This is an account of results in paper PMC7320009 (Scientific Reports, 2020).

Test [1] deals with T1, BPSS2242 (Burkholderia pseudomallei, UniProt Q63I27).
The target in test [2] is T1, BPSS2242. The source holds these as a separate data set.

T1 sequence (Q63I27 1-271 limits assumed): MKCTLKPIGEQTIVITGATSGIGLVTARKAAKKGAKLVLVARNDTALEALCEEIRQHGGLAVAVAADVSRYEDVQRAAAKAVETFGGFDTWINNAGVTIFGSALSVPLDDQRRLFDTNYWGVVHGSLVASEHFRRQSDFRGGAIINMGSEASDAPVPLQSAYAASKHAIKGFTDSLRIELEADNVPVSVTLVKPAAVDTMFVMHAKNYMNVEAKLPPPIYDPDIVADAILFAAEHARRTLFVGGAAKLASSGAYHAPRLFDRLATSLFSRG

Regarding `NC(=O)C1=CN([C@@H]2O[C@H](COP(=O)(O)OP(=O)(O)OC[C@H]3O[C@@H](n4cnc5c(N)ncnc54)[C@H](OP(=O)(O)O)[C@@H]3O)[C@@H](O)[C@H]2O)C=CC1` [NADPH], the Tm in test [1] is 55.23 °C.
Regarding `CC(=O)C=O` [methylglyoxal], the “NADPH oxidation at 340 nm” value in test [2] was “BPSS2242 exhibited reductase activity toward diacetyl and methylglyoxal when NADPH was used”.
